These results are taken from patent US9987361B1, “Compositions and method for sustained drug delivery by active transdermal technology” (Noven Pharmaceuticals, Inc., priority 2014, dated 2018).

In assay [1] the test system is microchannels in skin made by a microneedle device. In words: In vivo impedance after microneedle pretreatment. As to conditions: swine; DPG formulated with saturated compound, applied after microneedle pretreatment; FIG. 5. The procedure:
Impedance (Z) was assessed in vivo in swine as a measure of skin integrity using the compositions described above. Microneedle devices were inserted into swine with an applicator and removed, followed by application of the formulations. Impedance was measured before and after microneedle pretreatment, and during application of the formulations (formulations were removed and reapplied at every time point).
FIG. 5 illustrates the in vivo impedance measured before and after microneedle pretreatment for the five formulations.

The test system is the same in assay [2]. In words: In vivo transepidermal water loss (TEWL) after microneedle pretreatment. As to conditions: swine; DPG formulated with saturated compound, applied after microneedle pretreatment; FIG. 4. The procedure: Transepidermal water loss (TEWL) was assessed in vivo in swine as an indicator of skin integrity before and after microneedle pretreatment, using dipropylene glycol (DPG) formulated with saturated (i) cholesterol, (ii) curcumin, (iii) glycyrrhizin, (iv) diclofenac, or (v) no anti-healing compound. The diclofenac formulation was used as a positive control, and the formulation with no anti-healing compound was used as a negative control. Microneedle devices were inserted into swine skin with an applicator and removed, followed by application of the formulations. TEWL was measured before and after microneedle pretreatment, and during application of the formulations (formulations were removed and reapplied at every time point).
FIG. 4 illustrates the in vivo transepidermal water loss measured before and after microneedle pretreatment for the five formulations.

For another assay, the system named is microchannels. The note with it: reported in the literature; cited from earlier work.

Take `CC1(C)[C@@H](O[C@H]2O[C@H](C(=O)O)[C@@H](O)[C@H](O)[C@H]2O[C@@H]2O[C@H](C(=O)O)[C@@H](O)[C@H](O)[C@H]2O)CC[C@]2(C)[C@H]3C(=O)C=C4[C@@H]5C[C@@](C)(C(=O)O)CC[C@]5(C)CC[C@@]4(C)[C@]3(C)CC[C@@H]12` [glycyrrhizin]: the “impedance (Z)” value in assay [1] was “low impedance throughout the study”. Besides, the “transepidermal water loss (TEWL), sustained level” value (“transepidermal water loss (TEWL)” for short) in assay [2] is reported as “higher sustained levels of TEWL than the formulation with no anti-healing compound”.
On to `O=C(O)Cc1ccccc1Nc1c(Cl)cccc1Cl` [diclofenac, reference compound], for which, in assay [1], the “impedance (Z)” value is listed as “low impedance throughout the study”. Further, the “transepidermal water loss (TEWL)” value in assay [2] is given as “highest sustained level of TEWL”. Also, the lifetime of microchannels entry with microchannels is reported as “extend the lifetime of microchannels”.
As to `COc1cc(/C=C/C(=O)CC(=O)/C=C/c2ccc(O)c(OC)c2)ccc1O` [curcumin], in assay [1], the “impedance (Z)” value is given as “low impedance throughout the study”. The “transepidermal water loss (TEWL)” value in assay [2] is given as “higher sustained levels of TEWL than the formulation with no anti-healing compound”.
On the same counts, the results for `CC(C)CCC[C@@H](C)[C@H]1CC[C@H]2[C@@H]3CC=C4C[C@@H](O)CC[C@]4(C)[C@H]3CC[C@]12C` [cholesterol] are “low impedance throughout the study” and “higher sustained levels of TEWL than the formulation with no anti-healing compound”.
